Assay results reported in patent US4863899A, “Biologically active polypeptides” (priority 1987, dated 1989).

Experiments:
anti-KLH-peptide 1 IgG = assay: Solid phase RIA, 125I anti-KLH-peptide 1 IgG on BSA-peptide 1; assay type: binding, rabbit
Procedure: TGF peptide 1 was coupled to keyhole limpet hemocyanin (KLH) or bovine serum albumin (BSA) by thiol/maleimide linkage (King et al. (1979) J. Immunol. Methods 28, pp. 201-206). Carrier-peptide complexes were purified by gel filtration. An average of 60 moles peptide/mole KLH and 20 moles peptide/mole BSA was achieved. Rabbits were immunized with the KLH-peptide 1 conjugate by multiple subcutaneous (s.c.) and intramuscular (i.m.) injections of 2 mg protein in complete Freund's adjuvant. Rabbits were boosted s.c. every two weeks with the immunogen in incomplete Freund's adjuvant. The IgG fraction of the antiserum after 5 boosts was used for immunoassays and radiolabeled using Na^125 I (NEN) and Enzymobeads (Bio-Rad) to 4×10^5 cpm/μg protein. Polyvinyl chloride 96-well plates (Costar) were coated with 200 μg/mL BSA-peptide 1 conjugate and countercoated with 10% normal rabbit serum in phosphate-buffered saline. Plates were incubated for 4 hours at 37° C. with [^125 I]anti-KLH-peptide 1 IgG (50,000 cpm/well) in the presence or absence of inhibitors, washed and individual wells were counted.

[1] = system: 125I-labeled rat TGF binding to EGF receptors of A431 cells; assay: Binding of 125I-labeled rat TGF to A431 cells; set-up: species or system human
Procedure: was synthesized using the solid-phase technique of Ohgak et al. (1983) Journal of Immunol. Meth. 57, pp. 171-184. This oligopeptide was then coupled to keyhole limpet hemocyanin in accordance with the procedure of Baron et al. (1982) Cell 28, pp. 395-404, and used to immunize rabbits (Baron et al. (1982) Cell 28, pp. 395-404) and sheep (Lerner (1982) Nature 299, pp. 592-596). Antisera were assayed against peptide by a peroxidase-linked immunoassay (Kirkegaard and Perry Laboratories, Gaithersberg, Md.) and against homogeneous rat TGF (purified according to Example II above), by immunoprecipitation (Bister et al. (1980) J. Virol. 36, pp. 617-621) and Western blotting techniques (Burnett (1981) Analyt. Biochem. 112, pp. 195-203). Binding of ^125 I-labeled rat TGF and mouse EGF (Bethesda Research Labs, Bethesda, Md.) to A431 cells grown in 96-well microtiter plates was as described in Pross et al. (1977) Proc. Natl. Acad. Sci. U.S.A. 74, pp. 3918-3921.
Human epidermoid carcinoma A431 cells have in excess of 10^6 EGF receptors per cell (Fabricant et al. (1977) Proc. Natl. Acad. Sci. U.S.A. 74, pp. 565-569). TGF competes with EGF for binding to these receptors. Binding of ^125 I-labeled rat TGF to these cells was blocked by an excess of unlabeled EGF and by antiserum to peptide. […]

[2] = system: antiserum against peptide III; assay: Radioimmunoassay, inhibition of precipitation of 125I-peptide III; assay type: binding, rabbit
Procedure: Rabbits were immunized by subcutaneous injection of 1 mg of conjugate injected subcutaneously at four separate sites. Two booster injections were administered at bi-weekly intervals following the initial injection. The serum used in this study was collected eighty days after the initial injection. An immunoglobulin fraction of this serum was prepared by ammonium sulfate precipitation. The product of antibodies specific for immunizing peptide was monitored with a solid phase enzyme-linked immunoabsorbent assay.
Reactants were mixed in a final volume of 50 microliters of a solution containing: 20 mM sodium phosphate, at pH 7.4; 200 mM NaCl: 40 mM dithiothreitol; 0.1% (w:v) BSA; 0.1% (w:v) NaN3 : ^125 I-peptide III; (10^4 cpm); antiserum at a final dilution of 1/15,000; and other additions, as specified. The reaction was initiated by the addition of antiserum and continued at 23° C. for 90 minutes. An equal volume of 10% formalin-fixed Staphalococcus A (Pansorbin, Calbiochem) was then added and incubation was continued for an additional 30 minutes at 23° C. The immunoadsorbant was removed by sedimentation through a cushion of 10% (w:v) sucrose and the amount of bound ^125 I-peptide III was determined using a gamma counter. Under these conditions, approximately 25% of ^125 I-peptide was bound by antibody in the absence of competitor. The amount of bound peptide III was corrected for non-specific binding measured in the absence of antibody (less than 5% of the total) and expressed as a percentage of maximal binding. Concentrations of competitors were expressed as the amount of peptide III required to give an equivalent inhibition of precipitation.

normal rat kidney cells = assay type: cell-based; conditions: on a ng equivalent basis
EGF receptor = target: T1, EGF receptor (Homo sapiens, UniProt P00533); assay: 125I-EGF radioreceptor assay on formalin-fixed A431 human carcinoma cells; assay type: binding
T1 construct: subconfluent monolayers of formalin-fixed A431 human carcinoma cells; endogenous in cells; host or cells: A431 human carcinoma cells, formalin-fixed
Procedure: The fixed cells were washed twice with 0.5 ml of binding buffer (Dulbecco's modified Eagle's medium containing 1 mg/ml of bovine serum albumin and 50 mM 2-[bis(2-hydroxyethyl)amino]ethanesulfonic acid, pH 6.8).
TGF was quantitated in a radioreceptor assay based on receptor cross-reactivity with mouse submaxillary gland epidermal growth factor (mEGF).

[3] = system: normal rat kidney fibroblasts, clone 49F; assay: Soft agar growth assay; assay type: cell-based; conditions: tested with up to 10 μg
Procedure: The assay for colony growth in soft agar, using normal rat kidney fibroblasts, clone 49F, was performed as reported in Todaro et al. (1980) Proc. Natl. Acad. Sci. USA 77, pp. 5258-5262. Lyophilized samples to be tested were reconstituted in 0.5 ml of Dulbecco's modified Eagle's medium, supplemented with 10% calf serum. 1.5 ml of 0.5% (w/v) agar (Difco) in the supplemented medium and 0.5 ml of supplemented medium containing 2.3×10^4 cells were added. 2.3 ml of the resultant mixture were pipetted on a 2-ml base layer (0-5% agar in supplemented medium) in 60-mm Petri dishes (Falcon). The cells were incubated at 37° C. in a humidified 5% CO2 /95% air atmosphere. The assay was read unfixed and unstained at 5 days and at 10-14 days.

EGF: mouse submaxillary gland epidermal growth factor
inhibition of antibody reaction with BSA-TGF peptide (anti-KLH-peptide 1 IgG): did not cause significant inhibition
binding of 125I-labeled rat TGF to A431 cells [1]: blocked
increase in DNA synthesis relative to unstimulated serum deprived cells (mink fibroblasts): 59%
highest concentration without inhibition of precipitation of 125I-peptide III [2]: greater than 1 μM
Relative Inhibitory Activity ([2]; half-maximal inhibitory concentration relative to peptide III, standard RIA, > = highest concentration tested): > 1500
colonies in soft agar (normal rat kidney cells): 120 colonies
amount required to inhibit EGF binding by 50% (EGF receptor; 0.4 ng 125I-EGF, 1 h at 22° C.): 1.1 ng
IC50 (EGF receptor; 125I-EGF at 0.33 nM (Example XI), read-out: concentration giving half-maximal inhibition of 125I-EGF binding): 0.3 to 0.5 nM
stimulation of growth in soft agar [3]: does not stimulate growth
